In one test the target is T1, Candida albicans NMT (Candida albicans, UniProt P30418).
T1 construct: made in house; host or cells: E. coli
T1 sequence (P30418 1-451): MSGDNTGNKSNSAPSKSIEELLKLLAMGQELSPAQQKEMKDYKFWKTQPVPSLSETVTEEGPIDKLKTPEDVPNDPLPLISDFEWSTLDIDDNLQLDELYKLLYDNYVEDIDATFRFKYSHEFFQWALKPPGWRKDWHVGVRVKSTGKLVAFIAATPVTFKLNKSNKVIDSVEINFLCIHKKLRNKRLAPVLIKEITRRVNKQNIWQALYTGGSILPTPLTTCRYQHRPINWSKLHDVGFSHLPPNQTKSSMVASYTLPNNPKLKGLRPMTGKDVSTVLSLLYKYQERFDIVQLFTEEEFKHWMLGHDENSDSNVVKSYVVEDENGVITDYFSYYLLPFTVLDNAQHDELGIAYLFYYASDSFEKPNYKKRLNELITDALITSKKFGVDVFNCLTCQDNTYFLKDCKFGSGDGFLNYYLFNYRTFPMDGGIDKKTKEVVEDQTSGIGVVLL
The test can be described thus: NMT enzyme inhibition assay (radiochemical HPLC end-point), Candida NMT. Format: biochemical. Conditions: for IC50: read-out: IC50 caNMT. As to the method:
Recombinant Candida albicans and human NMTs were expressed and purified from E. coli using previously described protocols. [D. A. Towler et al, Proc. Natl. Acad. Sci. USA, 84, 2707-2712 (1987); R. C. Weigand et al, J. Biol. Chem., 267, 8591-8598 (1992); R. J. Duronio et al, Proc. Natl. Acad. Sci. USA, 89, 4129-4133 (1992)] The ability of compounds to inhibit Candida NMT enzymatic activity was assessed using a radiochemical HPLC end-point assay as described previously for Saccharomyces cerevisiae and human NMTs. [D. Towler et al, Proc. Natl. Acad. Sci. USA, 83, 2812-2816 (1986); W. J. Rocque et al, J. Biol. Chem., 268, 9964-9971 (1991)] The donor substrate [^3H]myristoyl-coenzyme A was enzymatically synthesized from [^3H]myristic acid (50 Ci/mmol, Amersham, Arlington Heights, Ill.) and coenzyme A (Fluka Chemical Corp., Ronkonkoma, N.Y.), and purified as described previously. [W. J. Rocque et al, J. Biol. Chem., 268, 9964-9971 (1991)] The peptide acceptor substrate GNAASARR-NH2 was prepared by solid-phase peptide synthesis using the t-Boc amino acid methodology, followed by HF treatment and reverse-phase HPLC purification. Inhibitor stock solutions were prepared at 22 mM in DMSO; the final concentration of DMSO in each assay was 0.5% (v/v). Inhibition assays were carried out by combining variable amounts of inhibitor or buffer with […] of [^3H]myristoyl-coenzyme A (1 μCi, 9.09 Ci/mmol) and 2.2 nmoles of GNAASARR-NH2 in a total volume of 60 μL of 0.2 M N-[2-hydroxy-ethyl]piperazine-N′-[2-ethanesulfonic acid], pH 7.4, 2 mM DL-dithiothreitol, 0.2 mM ethylene glycol-bis-(β-aminoethyl ether) N,N,N′,N′-tetraacetic acid, and initiating the reaction by the addition of 50 μL of a Candida NMT solution (7-12 ng/50 μL). Assays with human NMT were identical except that they used 60-75 ng/50 μL of enzyme solution and 0.22 nmoles of GNAASARR-NH2. The reaction was quenched after 10 minutes at 24° C. by the addition of ice-cold MeOH, and the reaction products were separated and measured using C4 reverse-phase HPLC (Vydac 214TP10415; Separations Group, Hesperia, Calif.) and in-line scintillation counting using a Radiomatic A250 (Packard Instruments, Downers Grove, Ill.) and Ecolite(+) (ICN Biomedical, Costa Mesa, Calif.) as the scintillant. Selectivity was determined by calculating the ratio of the IC50 against human NMT to the IC50 against C. albicans NMT.

In another test the test system is C.lusi. The test is described as follows: Antifungal susceptibility testing, pH 5.4 assay, different strains of Candida. Format: cell-based, C.lusitaniae. Conditions: Clavispora lusitaniae, 24 hr.
Another test deals with C.glab. Described as above. Conditions: Nakaseomyces glabratus, 24 hr. Format: cell-based, C.glabrata.
A further test deals with C.para. Described as above. Conditions: 24 hr. Format: cell-based, C.parasilosis.
The subject of a further test is C.alb (516). The test is described as above. The format is cell-based. The conditions noted are these: Candida albicans, 24 hr. On the procedure: 1) (Assay at DH 5.4/30° C. Incubation/YNB Media).
Antifungal assays were carried out initially by a modification of the method published by Jones, et. al; (1), and communicated to Searle by Dr. Kobayashi, Washington University. [R. N. Jones et al, Manual of Clinical Microbiology, 4th ed., (1985)]
The antifungal susceptibility testing consists of a microdilution broth procedure performed in 96 well microtiter plates (Costar, cat#3799). Briefly, test compounds from a 20 mM stock solution in DMSO are diluted into sterile, deionized water (final DMSO concentration not exceeding 1%), to yield 2× the desired concentration (100 uM, 10 uM and 1 uM for an initial screen, or a selected concentration range in serial 2 fold dilutions for EC50 determination). One hundred microliters (100 ul) of each concentration is dispensed into triplicate wells of a 96 well microtiter plate. Appropriate dilutions of a suspension of C.albicans (1×10^6 cells/ml) in 2× YNB is distributed into each of the wells, including growth control wells containing no test compound as well as control wells with 0.5% DMSO. Amphotericin B at 0.05, 1 and 5 ug/ml is included in each assay plate as a positive control. The plates are incubated at 30° C. and cell growth is scored by reading the absorbance at 590 nm on an Elisa plate reader(Dynatech, MR.5000).

The next test relates to C.trop. Described as above. The conditions noted are these: Candida tropicalis, 24 hr. Format: cell-based, C.tropicalis.

Where two headings read alike, the source gives them in different places.

Consider `Cc1nccn1CCCCc1ccc(CC(=O)N[C@@H](CO)C(=O)N[C@@H](CCCCN)C(=O)N[C@@H](CC2CCCCC2)C(=O)O)cc1` [Example 2, L-Alanine, 3-cyclohexyl-N-[N^2-[N-[[4-[4-(2-Methyl-1H-imidazol-1-yl)butyl]phenyl]acetyl]-L-seryl]-L-lysyl]-, bis-trifluoroacetate], for which, at Candida albicans NMT (Table V), the IC50 was found to be 1.4 µM. Moreover, the Selectivity at Candida albicans NMT (ratio of IC50 against human NMT to IC50 against C. albicans NMT) is 560. For the same molecule, the EC50 is over 250 µM in the test on C.lusi.; over 250 µM in the test on C.glab.; 40 µM with C.para.; over 250 µM in the test on C.alb (516); over 250 µM in the test with C.trop..
`Cc1nccn1CCCCc1ccc(CC(=O)N[C@H](CO)C(=O)N[C@H](CCCCN)C(=O)N[C@H](CC2CCCCC2)C(=O)O)cc1` [Comparator Compound A, D-Alanine, 3-cyclohexyl-N-[N^2-[N-[[4-[4-(2-methyl-1H-imidazol-1-yl)butyl]phenyl]acetyl]-D-seryl]-D-lysyl]-, bis-trifluoroacetate]: on Candida albicans NMT (Comparator Compound A table), the concentration for half-maximal inhibition (IC50) is over 1000 µM. For the same molecule, on Candida albicans NMT (result in words), the “inhibition of purified C. albicans Nmt in vitro” value is on record as “not an inhibitor”. The EC50 in the test with C.lusi., in the test on C.glab., in the test with C.para., in the test with C.alb (516) and in the test on C.trop. was over 250 µM throughout.

One may read the IC50 as the midpoint of a concentration-inhibition curve. What is called EC50 is the concentration at which the effect is half-maximal.

Source of the values: patent US6632921B1, “Seryl-lysyl-based peptide and peptidomimetic inhibitors of N-myristoyl transferase as anti-infective agents” (G. D Searle & Co, priority 1995, dated 2003).
